Data from patent US9126973B2, “Multiheteroaryl compounds as inhibitors of H-PGDS and their use for treating prostaglandin D2 mediated diseases” (Cayman Chemical Company, Incorporated, priority 2008, dated 2015).

How the values were obtained:
[1] = target: H-PGDS (Homo sapiens (Human), UniProt O60760); test: H-PGDS Fluorescence Polarization Binding Assay (FPBA); conditions: H-PGDS-MBP fusion enzyme, fluorescent probe, reduced glutathione 5 mM, 60-90 minutes at room temperature, 96-well format
Description: H-PGDS Fluorescence Polarization Binding Assay This assay essentially is available from Cayman Chemical Company as Catalog item #600007. The test data reported for the aforementioned Examples (H-PGDS FPBA IC50) were generated using a 96-well, instead of the 384-well, format. […] Assays were performed in 96-well microtiter plates in 100 μL of total sample volume. Excitation and emission wavelengths appropriate for the employed detection analyte were used. […] Twelve clean microfuge tubes were labeled A1 through A12. […] Dimethyl sulfoxide (50 μL) was added to each of tubes A1 through A11. The HQL-79 control solution was serially diluted by removing 50 μL from tube A12 and placing it in tube A11 with subsequent thorough mixing of the contents of tube A11. Next, 50 μL was removed from tube A11 and was placed into tube A10 with subsequent thorough mixing of the contents of tube A10. This process was repeated for tubes A9 through A2. […] A test compound may be dissolved in DMSO, ethanol, or methanol at several concentrations when the titration endpoint is unknown. […] Assay cocktail (95 μL) was added to each plate well. DMSO (5 μL) from microfuge tube A1 was added to each plate well A1 and B1. Positive control solution (5 μL) from microfuge tube A2 was added to each plate well A2 and B2. Positive control solution (5 μL) from microfuge tube A3 was added to each plate well A3 and B3. This procedure was continued until all the positive control standard dilutions were aliquoted. Test compound solutions (5 μL) were added to the wells. […] The IC50 for a particular test compound was obtained by performing a full concentration titration versus a full concentration titration of positive control. Comparison of a single concentration of a test compound to the maximum binding well provided an assessment of the relative affinity of the test compound for H-PGDS-MBP. The plate was covered and incubated for 60-90 minutes at room temperature. The FP signal is stable for at least two hours. […] The measurements were taken in the fluorescent polarization mode with the z-height set to the middle of the well and the G-factor set to 1.13 on a Tecan Safire 2 reader.

H-PGDS, sequence (O60760 whole entry, the tested form may be a part): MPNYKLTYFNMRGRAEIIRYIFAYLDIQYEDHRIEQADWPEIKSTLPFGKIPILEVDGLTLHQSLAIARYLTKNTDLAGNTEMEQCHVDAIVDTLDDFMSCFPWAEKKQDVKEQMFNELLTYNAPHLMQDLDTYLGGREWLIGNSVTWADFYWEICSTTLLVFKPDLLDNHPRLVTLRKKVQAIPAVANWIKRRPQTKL

Structure (SMILES)	IC50 [1]	melting point
CC(C)(C)OC(=O)N1CCCC(c2ncc(-c3cnc(-c4ccccc4)nc3)[nH]2)C1 (racemic) [Example 21, (±)-tert-butyl 3-(5-(2-phenylpyrimidin-5-yl)-1H-imidazol-2-yl)piperidine-1-carboxylate]	0.2 µM	130 °C
c1ccc(-c2ncc(-c3cnc(C4CCCNC4)[nH]3)cn2)cc1 (racemic) [Example 22, (±)-2-phenyl-5-(2-(piperidin-3-yl)-1H-imidazol-5-yl)pyrimidine]	1.25 µM	140 °C
c1ccc(CN2CCCC(c3ncc(-c4cnc(-c5ccccc5)nc4)[nH]3)C2)cc1 (racemic) [Example 23, (±)-5-(2-(1-benzylpiperidin-3-yl)-1H-imidazol-5-yl)-2-phenylpyrimidine]	0.6 µM	179 °C
CNC(=O)N1CCCC(c2nc(-c3cnc(-c4ccccc4)nc3)cn2C(=O)NC)C1 (racemic) [Example 25A, (±)-N-methyl-3-(1-(methylcarbamoyl)-4-(2-phenylpyrimidin-5-yl)-1H-imidazol-2-yl)piperidine-1-carboxamide]	0.62 µM	–
CNC(=O)N1CCCC(c2ncc(-c3cnc(-c4ccccc4)nc3)[nH]2)C1 (racemic) [Example 25B, (±)-N-methyl-3-(5-(2-phenylpyrimidin-5-yl)-1H-imidazol-2-yl)piperidine-1-carboxamide]	0.3 µM	–
O=C(N1CCCC(c2nc(-c3cnc(-c4ccccc4)nc3)c[nH]2)C1)C(F)(F)F (racemic) [Example 27, (±)-2,2,2-trifluoro-1-(3-(4-(2-phenylpyrimidin-5-yl)-1H-imidazol-2-yl)piperidin-1-yl)methanone]	0.09 µM	–
CC(C)(C)OC(=O)N1CCC(c2ncc(-c3cnc(-c4ccccc4)nc3)[nH]2)C1 (racemic) [Example 28, (±)-tert-butyl 3-(5-(2-phenylpyrimidin-5-yl)-1H-imidazol-2-yl)pyrrolidine-1-carboxylate]	–	219 °C
c1ccc(-c2ncc(-c3cnc(C4CCNC4)[nH]3)cn2)cc1 (racemic) [Example 30, (±)-2-phenyl-5-(2-(pyrrolidin-3-yl)-1H-imidazol-5-yl)pyrimidine]	2 µM	–
CC(=O)N1CCCC(c2nc(-c3cnc(-c4ccccc4)nc3)c[nH]2)C1 (stereo not drawn) [1-(3-(4-(2-phenylpyrimidin-5-yl)-1H-imidazol-2-yl)piperidin-1-yl)ethanone]	0.09 µM	–
c1ccc(Cn2c(-c3cnc(-c4ccccc4)nc3)cnc2-c2ccccc2)cc1 [Example 1 (Step C), 5-(1-benzyl-2-phenyl-1H-imidazol-5-yl)-2-phenylpyrimidine]	15 µM	–
c1ccc(-c2ncc(-c3cnc[nH]3)cn2)cc1 [Example 5, 5-(1H-imidazol-5-yl)-2-phenylpyrimidine]	5 µM	216 °C
COc1ccc(-c2ncc(-c3cnc(-c4ccccc4)[nH]3)cn2)cc1OC [Example 7, 2-(3,4-dimethoxyphenyl)-5-(2-phenyl-1H-imidazol-5-yl)pyrimidine]	3.5 µM	231 °C
c1cncc(-c2ncc(-c3cnc(-c4cccnc4)[nH]3)cn2)c1 [Example 12, 2-(pyridin-3-yl)-5-(2-(pyridin-3-yl)-1H-imidazol-5-yl)pyrimidine]	1.3 µM	299 °C
c1ccc(-c2ncc(-c3cnc(CCc4cccnc4)[nH]3)cn2)cc1 [Example 16, 2-phenyl-5-(2-(2-(pyridin-3-yl)ethyl)-1H-imidazol-5-yl)pyrimidine]	0.3 µM	113 °C
CC(C)(C)OC(=O)N1CCC(c2ncc(-c3cnc(-c4ccccc4)nc3)[nH]2)CC1 [Example 17, tert-butyl 4-(5-(2-phenylpyrimidin-5-yl)-1H-imidazol-2-yl)piperidine-1-carboxylate]	0.15 µM	–
c1ccc(-c2ncc(-c3cnc(C4CCNCC4)[nH]3)cn2)cc1 [Example 18, 2-phenyl-5-(2-(piperidin-4-yl)-1H-imidazol-5-yl)pyrimidine]	1 µM	–

Structure (SMILES)	IC50 [1]	melting point
OC(N1CCCC(c2ncc(-c3cnc(-c4ccccc4)nc3)[nH]2)C1)C(F)(F)F (stereo not drawn) [Example 24, 2,2,2-trifluoro-1-(3-(4-(2-phenylpyrimidin-5-yl)-1H-imidazol-2-yl)piperidin-1-yl)ethanol]	10 µM	–
c1ccc(-c2ncc(-c3cn(C(c4ccccc4)(c4ccccc4)c4ccccc4)cn3)cn2)cc1 [Example 34 (Step A), 2-phenyl-5-(1-trityl-1H-imidazol-4-yl)pyrimidine]	> 20 µM	–
c1ccc(Cn2c(-c3ccccc3)cnc2-c2cnc(-c3ccccc3)nc2)cc1 [Example 44 (Step B), 5-(1-benzyl-5-phenyl-1H-imidazol-2-yl)-2-phenylpyrimidine]	15 µM	–
c1ccc(-c2cc(-c3cnc(-c4ccccc4)nc3)[nH]n2)cc1 [Example 45, 2-phenyl-5-(3-phenyl-1H-pyrazol-5-yl)pyrimidine]	1.5 µM	–
c1ccc(-c2ncc(-c3ncc(-c4ccccc4)o3)cn2)cc1 [Example 47, 5-phenyl-2-(2-phenylpyrimidin-5-yl)oxazole]	> 20 µM	–
CC(C)(C)OC(=O)N1CCC(n2nnc(-c3cnc(-c4ccccc4)nc3)n2)CC1 [Example 52, tert-butyl 4-(5-(2-phenylpyrimidin-5-yl)-2H-tetrazol-2-yl)piperidine-1-carboxylate]	–	178 to 180 °C
c1ccc(-c2ncc(-c3cc(-c4cccnc4)n[nH]3)cn2)cc1 [Example 53, 2-phenyl-5-(3-(pyridin-3-yl)-1H-pyrazol-5-yl)pyrimidine]	1.3 µM	–
O=C(O)c1cc(-c2cnc(Oc3ccccc3)nc2)[nH]n1 [Example 56, 5-(2-phenoxypyrimidin-5-yl)-1H-pyrazole-3-carboxylic acid]	5 µM	–
CC(C)(C)OC(=O)c1csc(-c2cnc(-c3ccccc3)nc2)n1 [Example 62, tert-butyl 2-(2-phenylpyrimidin-5-yl)thiazole-4-carboxylate]	5.9 µM	–
O=C(O)c1csc(-c2cnc(-c3ccccc3)nc2)n1 [Example 63, 2-(2-Phenylpyrimidin-5-yl)thiazole-4-carboxylic acid]	1.1 µM	–
O=C(NCCN1CCOCC1)c1csc(-c2cnc(-c3ccccc3)nc2)n1 [Example 65, N-(2-morpholinoethyl)-2-(2-phenylpyrimidin-5-yl)thiazole-4-carboxamide]	2.5 µM	–
Cc1ccc(-c2cnc(-c3cccnc3)n2Cc2ccccc2)cn1 [Example 66 (Step A), 5-(1-benzyl-2-(pyridin-3-yl)-1H-imidazol-5-yl)-2-methylpyridine]	> 10 µM	–
Cc1ccc(-c2cnc(-c3cccnc3)[nH]2)cn1 [Example 66, 2-methyl-5-(2-(pyridin-3-yl)-1H-imidazol-5-yl)pyridine]	> 10 µM	–
Cc1nc(-c2ccccc2)sc1-c1cnc(-c2cccnc2)n1Cc1ccccc1 [Example 71, 5-(1-benzyl-2-(pyridin-3-yl)-1H-imidazol-5-yl)-4-methyl-2-phenylthiazole]	> 20 µM	–
Cn1nnc(-c2cnc(-c3ccccc3)nc2)n1 [Example 73A, 5-(2-methyl-2H-tetrazol-5-yl)-2-phenylpyrimidine]	10 µM	–
Cn1nnnc1-c1cnc(-c2ccccc2)nc1 [Example 73B, 5-(1-methyl-1H-tetrazol-5-yl)-2-phenylpyrimidine]	20 µM	–
